The source of these data is patent US10975068B2, “6-aminopyridin-3-yl thiazoles as modulators of RORγT” (Janssen Pharmaceutica NV, priority 2016, dated 2021).

Read-outs that look alike come from different tables or passages of the source.

Experiment [1] concerns the target human RORγt ligand binding domain (RORγt LBD) (Homo sapiens (Human), UniProt P51449). The experiment in a line: RORγt ThermoFluor® assay (thermal shift binding). The conditions noted are these: read-out: ThermoFluor® Assay, Kd. The gist of the method: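 Binding was inferred from thermal stabilisation (ΔTm) of the E. coli-expressed RORγt LBD (0.065 mg/mL), monitored by 1,8-ANS (60 μM) emission at 500 nm during a 1 °C/min ramp. Buffer was Hepes 100 mM pH 7.0 with NaCl, GSH and Tween-20.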
Background: Differential scanning fluorimetry follows unfolding on heating by fluorescence.

The target of another experiment is full-length human RORγt (Homo sapiens (Human), UniProt P51449). The experiment in a line: RORγt (full-length human) reporter assay, Conditions B or C. The conditions noted are these: for RORγt (FL) Reporter Assay B or C, % inhibition (value marked *): marked *: footnote not given; for inhibition at 3 µM: at 3 μM compound concentration; for inhibition at 3 µM / inhibition at 1 µM: read-out: RORγt (FL) Reporter Assay B or C, % inhibition; for inhibition at 1 µM: at 1 μM compound concentration. The format is cell-based. The method, boiled down: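 Readout is dual luciferase: firefly (GAL4-driven) normalized to DMSO-only and saturating-reference controls, then to CMV-Renilla. Full-length human RORγt fused to GAL4-DBD was transiently expressed in HEK293T; compound exposure ran overnight (16-20 h) starting 4-6 h after transfection, final FBS 1.3%, DMSO 0.1%.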
On the technique in general: In a reporter assay the amount or activity of a reporter protein is the signal.

The mark [2] stands for this setting: Conditions B or C, read-out: RORγt (FL) Reporter Assay B or C, IC50.
Setting [3] is: read-out: RORγt (FL) Reporter Assay B or C, IC50.

Sequence of full-length human RORγt (P51449 other isoform, or with tags, fused parts or gaps): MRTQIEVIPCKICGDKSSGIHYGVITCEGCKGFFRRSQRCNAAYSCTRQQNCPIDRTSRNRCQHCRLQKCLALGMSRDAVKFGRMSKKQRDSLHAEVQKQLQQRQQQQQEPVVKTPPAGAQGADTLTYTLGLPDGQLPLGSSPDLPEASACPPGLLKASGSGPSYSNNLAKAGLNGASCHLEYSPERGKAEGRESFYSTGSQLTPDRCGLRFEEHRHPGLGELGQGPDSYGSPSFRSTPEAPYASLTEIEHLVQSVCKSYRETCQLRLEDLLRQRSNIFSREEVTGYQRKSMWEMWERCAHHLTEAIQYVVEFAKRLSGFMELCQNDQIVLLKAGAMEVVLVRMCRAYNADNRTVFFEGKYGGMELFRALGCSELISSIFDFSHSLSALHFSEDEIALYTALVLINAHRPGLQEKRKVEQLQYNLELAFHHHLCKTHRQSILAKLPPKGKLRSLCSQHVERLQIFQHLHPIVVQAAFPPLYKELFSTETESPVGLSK
Sequence of human RORγt ligand binding domain (RORγt LBD) (P51449 other isoform, or with tags, fused parts or gaps): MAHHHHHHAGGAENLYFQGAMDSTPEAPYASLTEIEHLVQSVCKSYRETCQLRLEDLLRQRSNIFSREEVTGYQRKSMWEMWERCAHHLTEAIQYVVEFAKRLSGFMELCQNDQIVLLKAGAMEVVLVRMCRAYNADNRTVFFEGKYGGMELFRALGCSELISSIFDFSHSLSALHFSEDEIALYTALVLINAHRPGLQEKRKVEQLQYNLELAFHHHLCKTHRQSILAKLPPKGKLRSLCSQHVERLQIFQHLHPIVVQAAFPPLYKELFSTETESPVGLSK

Consider `C[C@H](Nc1cc(C(F)F)c(-c2sc(C(=O)N[C@H]3COC[C@H]3O)nc2C(=O)N2CCC[C@@H]2C)cn1)C(F)(F)F` (single isomer, unassigned) [Example 160, 5-(4-(Difluoromethyl)-6-(((S)-1,1,1-trifluoropropan-2-yl)amino)pyridin-3-yl)-N-((3S*,4S*)-4-hydroxytetrahydrofuran-3-yl)-4-((S)-2-methylpyrrolidine-1-carbonyl)thiazole-2-carboxamide], for which the Kd (commonly the constant that tells how readily two partners part at equilibrium) in experiment [1] was 8.7 nM. On full-length human RORγt (Conditions B or C), the “RORγt (FL) Reporter Assay B or C, % inhibition (value marked *)” value (“RORγt … % inhibition (value marked *)” below) was 101* %. In addition, on full-length human RORγt (setting [2]), the IC50 – broadly, the concentration at which inhibition is half-maximal – came out at 410 nM.
As for `C[C@H](Nc1cc(C(F)F)c(-c2sc(C(=O)N[C@@H]3CCC[C@H]3O)nc2C(=O)N2CCC[C@@H]2C)cn1)C(F)(F)F` [Example 283, 5-(4-(Difluoromethyl)-6-(((S)-1,1,1-trifluoropropan-2-yl)amino)pyridin-3-yl)-N-((1R,2R)-2-hydroxycyclopentyl)-4-((S)-2-methylpyrrolidine-1-carbonyl)thiazole-2-carboxamide], the Kd in experiment [1] was determined as 1.9 nM. Besides, the inhibition (commonly the relative decrease from the control value, in per cent) at 3 µM at full-length human RORγt was 106%. Besides, at full-length human RORγt (setting [3]), the concentration for half-maximal inhibition (IC50) was 54 nM.
Take `C[C@H]1CC(F)(F)CN1C(=O)c1nc(C(=O)NC2COCC2O)sc1-c1cnc(NC2(C)CCC2)cc1C(F)(F)F` (stereo in doubt) [Example 185, 4-((S)-4,4-Difluoro-2-methylpyrrolidine-1-carbonyl)-N-((3S,4R)-4-hydroxytetrahydrofuran-3-yl)-5-(6-((1-methylcyclobutyl)amino)-4-(trifluoromethyl)pyridine-3-yl)thiazole-2-carboxamide]: in experiment [1], the Kd is 0.23 nM. At full-length human RORγt (Conditions B or C), the “RORγt … % inhibition (value marked *)” value is listed as 101* %. For the same compound, the IC50 on full-length human RORγt (setting [2]) worked out at 15 nM.
In the case of `CC[C@H](Nc1cc(C(F)F)c(-c2sc(C(=O)NC3CN(S(C)(=O)=O)C3)nc2C(=O)N2CCC[C@@H]2C)cn1)C(F)(F)F` [Example 383, 5-[4-(Difluoromethyl)-6-[[(1S)-1-(trifluoromethyl)propyl]amino]-3-pyridyl]-4-[(2S)-2-methylpyrrolidine-1-carbonyl]-N-(1-methylsulfonylazetidin-3-yl)thiazole-2-carboxamide], in experiment [1], the Kd came to 2.6 nM. Also, at full-length human RORγt, the inhibition at 3 µM is 108%. The IC50 on full-length human RORγt (setting [3]) came to 92 nM.
For the compound `C[C@H]1CCCN1C(=O)c1nc(C(=O)N[C@H](C)C(C)(C)O)sc1-c1cnc(N[C@@H](C2CC2)C(F)(F)F)cc1C(F)F` [Example 311, 5-(6-(((S)-1-Cyclopropyl-2,2,2-trifluoroethyl)amino)-4-(difluoromethyl)pyridin-3-yl)-N—((R)-3-hydroxy-3-methylbutan-2-yl)-4-((S)-2-methylpyrrolidine-1-carbonyl)thiazole-2-carboxamide], the Kd in experiment [1] was 3.7 nM. In addition, the inhibition at 3 µM on full-length human RORγt turned out to be 107%. Besides, on full-length human RORγt (setting [3]), the half-inhibitory concentration (IC50) stood at 40 nM.
On the same counts, the results for `C[C@H]1CCCN1C(=O)c1nc(C(=O)NC2CCOCC2)sc1-c1cnc(NC(C)(C)C)cc1C(F)(F)F` [Example 374, 5-[6-(tert-Butylamino)-4-(trifluoromethyl)-3-pyridyl]-4-[(2S)-2-methylpyrrolidine-1-carbonyl]-N-tetrahydropyran-4-yl-thiazole-2-carboxamide] are 1.6 nM, 121% and 4.8 nM.
For the compound `C[C@H](Nc1cc(C(F)F)c(-c2sc(C(=O)NCC(C)(C)O)nc2C(=O)N2C3CCC2CC3)cn1)C1CC1` [Example 55, 4-((1s,4s)-7-Azabicyclo[2.2.1]heptane-7-carbonyl)-5-(6-(((S)-1-cyclopropylethyl)amino)-4-(difluoromethyl)pyridin-3-yl)-N-(2-hydroxy-2-methylpropyl)thiazole-2-carboxamide], the Kd in experiment [1] is 7.9 nM. At full-length human RORγt (Conditions B or C), the “RORγt … % inhibition (value marked *)” value is given as 92* %. For the same compound, at full-length human RORγt (setting [2]), the 50% inhibitory concentration (IC50) was found to be 31 nM.
For `CC[C@H](Nc1cc(C(F)F)c(-c2sc(C(=O)NCC(C)(C)O)nc2C(=O)N2CCC[C@@H]2C)cn1)C1CC1` (relative stereo) [Example 166], in that order: 4.7 nM, 94* % and 27 nM.
As to `CCC(C)(C)Nc1cc(C(F)F)c(-c2sc(C(=O)NCC(C)(C)O)nc2C(=O)N2CC(F)(F)C[C@@H]2C)cn1` [Example 94, (S)-4-(4,4-Difluoro-2-methylpyrrolidine-1-carbonyl)-5-(4-(difluoromethyl)-6-(tert-pentylamino)pyridin-3-yl)-N-(2-hydroxy-2-methylpropyl)thiazole-2-carboxamide], the Kd in experiment [1] was determined as 0.36 nM. The “RORγt … % inhibition (value marked *)” value at full-length human RORγt (Conditions B or C) is listed as 115* %. In addition, at full-length human RORγt (setting [2]), the IC50 worked out at 12 nM.
Regarding `CC[C@H](Nc1cc(C(F)F)c(-c2sc(C(=O)N[C@H]3C[C@@H]3O)nc2C(=O)N2CCC[C@@H]2C)cn1)C(F)(F)F` (relative stereo) [Example 214, 5-(4-(Difluoromethyl)-6-(((S)-1,1,1-trifluorobutan-2-yl)amino)pyridin-3-yl)-N-((1S*,2S*)-2-hydroxycyclopropyl)-4-((S)-2-methylpyrrolidine-1-carbonyl)thiazole-2-carboxamide], in experiment [1], the Kd was determined as 12 nM. Besides, the “RORγt … % inhibition (value marked *)” value at full-length human RORγt (Conditions B or C) was 98* %. Besides, on full-length human RORγt (setting [2]), the IC50 stood at 75 nM.
Take `C[C@H]1CC(F)(F)CN1C(=O)c1nc(C(=O)NCC(C)(C)O)sc1-c1cnc(NC(C2CC2)C2CC2)cc1C(F)(F)F` [Example 138, (S)-5-(6-((Dicyclopropylmethyl)amino)-4-(trifluoromethyl)pyridin-3-yl)-4-(4,4-difluoro-2-methylpyrrolidine-1-carbonyl)-N-(2-hydroxy-2-methylpropyl)thiazole-2-carboxamide]: the Kd in experiment [1] came out at 0.62 nM. The “RORγt (FL) Reporter Assay B or C, % inhibition (value marked ***)” value at full-length human RORγt (Conditions B or C, marked ***: footnote not given) was 100*** %. Also, the IC50 at full-length human RORγt (setting [2]) was 12 nM.
`CC(C)(C)Nc1cc(C(F)F)c(-c2sc(C(=O)N[C@H]3CC[C@H](O)C3)nc2C(=O)N2C3CCC2CC3)cn1` [Example 413, 4-((1s,4s)-7-Azabicyclo[2.2.1]heptane-7-carbonyl)-5-[6-(tert-butylamino)-4-(difluoromethyl)-3-pyridyl]-N-[(1S,3S)-3-hydroxycyclopentyl]thiazole-2-carboxamide]: the Kd in experiment [1] came out at 0.82 nM. The same compound returned an IC50 against full-length human RORγt (RORγt (FL) Reporter Assay B or C, IC50) of 20 nM. Further, the inhibition at 1 µM at full-length human RORγt was found to be 133%.
On to `C[C@H]1CC(F)(F)CN1C(=O)c1nc(C(=O)N[C@H](C)C(C)(C)O)sc1-c1cnc(NC2(C)CCC2)cc1C(F)F` [Example 325, 4-((S)-4,4-Difluoro-2-methylpyrrolidine-1-carbonyl)-5-(4-(difluoromethyl)-6-((1-methylcyclobutyl)amino)pyridin-3-yl)-N—((R)-3-hydroxy-3-methylbutan-2-yl)thiazole-2-carboxamide], for which, in experiment [1], the Kd was 1.2 nM. Further, the inhibition at 3 µM at full-length human RORγt was 96%. The IC50 on full-length human RORγt (setting [3]) turned out to be 120 nM.
On to `C[C@H](Nc1cc(C(F)F)c(-c2sc(C(=O)N[C@@H]3CC[C@@H](O)C3)nc2C(=O)N2C3CCC2CC3)cn1)C(F)(F)F` [Example 438, 4-((1s,4s)-7-Azabicyclo[2.2.1]heptane-7-carbonyl)-5-[4-(difluoromethyl)-6-[[(1S)-2,2,2-trifluoro-1-methyl-ethyl]amino]-3-pyridyl]-N-[(1R,3R)-3-hydroxycyclopentyl]thiazole-2-carboxamide], for which the Kd in experiment [1] is 4 nM. Besides, at full-length human RORγt, the inhibition at 1 µM came out at 99%. For the same compound, the IC50 at full-length human RORγt (setting [3]) was 83 nM.
